From patent US20170283804A1, “ANTISENSE COMPOUNDS AND USES THEREOF” (Ionis Pharmaceuticals, Inc., priority 2014, published 2017)
Oligonucleotides are written 5' to 3', each unit as a sugar letter and its base; * is a phosphorothioate linkage, no mark a phosphodiester; rarer units and linkages stand in square brackets, end groups in braces. Plain capitals give the bases only. e = 2'-O-(2-methoxyethyl) (MOE); k = constrained ethyl (cEt); [5mC] = 5-methylcytosine; d = 2'-deoxy (DNA)

Tests used:
[1] = system: mouse Scavenger Receptor Class B, Number 1 (SRB-1) transcript; assay: Isis No. 353382 activity in MHT cells with or without bioactive lipid pre-treatment (SRB-1 mRNA, real-time PCR); format: cell-based
From the text: Antisense oligonucleotides were synthesized using standard solid phase oligonucleotide synthetic methods. Isis No. 353382 targets the mouse Scavenger Receptor Class B, Number 1 (SRB-1) transcript (GENBANK accession number NM_016741.1, SEQ ID NO: 1). The sequence of Isis No. 353382 is 5′-[…]-3′ (SEQ ID NO: 2). It is a 5-10-5 MOE gapmer, wherein the five nucleosides at the 5′-end and the five nucleosides at the 3′-end comprise 2′-methoxyethyl (MOE) modifications, and the ten middle nucleosides are 2′-deoxynucleosides. All internucleoside linkages are phosphorothioate linkages. The cytosine bases are 5-methylcytosines.
In order to test the effect of pre-treatment with bioactive lipids on Isis No. 353382 activity in vitro, mouse hepatocellular SV40 large T-antigen (MHT) carcinoma cells were treated with 200 nM myriocin or 3 μM FTY-720 was added 2 hours before Isis No. 353382 at the concentrations shown in Tables 1 and 2 below. Cells were lysed 24 hours following oligonucleotide addition, and total RNA was purified. SRB-1 mRNA levels were determined using real-time PCR and RIBOGREEN® RNA quantification reagent (Molecular Probes, Inc. Eugene, Oreg.) according to standard protocols.

[2] = system: mouse Metastasis associated lung adenocarcinoma transcript 1 (Malat-1); assay: In vivo activity of Isis No. 556062 with and without FTY-720 pre-treatment (Malat-1 RNA in tissues, Example 2); details: mice
From the text: Isis No. 556062 targets the mouse Metastasis associated lung adenocarcinoma transcript 1 (Malat-1, GENBANK accession number NR_002847.2, SEQ ID NO: 3). The sequence of Isis No. 556062 is 5′-GGCTTAATGCAGCATT-3′ (SEQ ID NO: 4). It is a 3-10-3 (S)-cEt gapmer, wherein the three nucleosides at the 5′-end and the three nucleosides at the 3′-end comprise 2′-O—CH(CH3)-4′ modifications, and the ten middle nucleosides are 2′-deoxynucleosides. All internucleoside linkages are phosphorothioate linkages. The cytosine bases are 5-methylcytosines.
Malat-1 RNA levels were determined using real-time PCR and RIBOGREEN® RNA quantification reagent (Molecular Probes, Inc. Eugene, OR) according to standard protocols. Malat-1 RNA levels were determined relative to total RNA (using Ribogreen), prior to normalization to PBS-treated control. The results are presented in Table 16 as average Malat-1 RNA levels for each treatment group. Results for groups that received Isis No. 556062 alone are relative the group that received only PBS, and results for groups that received Isis No. 556062 and FTY-720 are relative to the group that received 3 mg/kg FTY-720 and PBS in place of Isis No. 556062.

[3] = system: mouse Metastasis associated lung adenocarcinoma transcript 1 (Malat-1); assay: In vivo dose response of Isis No. 556062 with and without FTY-720 pre-treatment (Malat-1 RNA, Example 3); details: mice; liver; 1 mg/kg FTY-720 i.p. once a day for 11 days; Isis No. 556062 subcutaneous on day 10
Experimental: Each treatment group consisted of 4 animals.
Malat-1 RNA levels were determined as described in Example 2. The results are presented in Table 18 as average Malat-1 RNA levels for each treatment group. Results for groups that received Isis No. 556062 alone are relative the group that received only PBS, and results for groups that received Isis No. 556062 and 1 mg/kg FTY-720 are relative to the group that received 1 mg/kg FTY-720 and PBS in place of Isis No. 556062.

Compound: CCCCCCC(=O)CCCCCC/C=C/C[C@@H](O)[C@H](O)[C@@](N)(CO)C(=O)O [myriocin, reference compound]
- Effect of pre-treatment on the effect of Isis No. 353382 in vitro ([1]; 200 nM myriocin 2 hours before Isis No. 353382): potentiated the effect of Isis No. 353382

Compound: Isis No. 353382: 5-10-5 MOE gapmer 5′-GCTTCAGTCATGACTTCCTT-3′ (SEQ ID NO: 2), all phosphorothioate linkages, 5-methylcytosines; targets mouse SRB-1 transcript (antisense eG*e[5mC]*eT*eT*e[5mC]*dA*dG*dT*d[5mC]*dA*dT*dG*dA*d[5mC]*dT*eT*e[5mC]*e[5mC]*eT*eT)
- Average SRB-1 mRNA level in cells receiving 200 nM myriocin ([1]; 0.16 nM Isis No. 353382, 200 nM myriocin added 2 hours before, 24 hours): 73.5 % control
- Average SRB-1 mRNA level in cells receiving 3 μM FTY-720 ([1]; 0.16 nM Isis No. 353382, 3 μM FTY-720 added 2 hours before, 24 hours): 85.5 % control
- Average SRB-1 mRNA level in cells receiving no pre-treatment ([1]; 0.16 nM Isis No. 353382, 24 hours, no pre-treatment): 96.9 % control
- Average SRB-1 mRNA level in cells receiving no pre-treatment ([1]; 0.16 nM Isis No. 353382, no pre-treatment, 24 hours): 91.8 % control
- Average SRB-1 mRNA level in cells receiving 200 nM myriocin ([1]; 0.64 nM Isis No. 353382, 200 nM myriocin added 2 hours before, 24 hours): 73.2 % control
- Average SRB-1 mRNA level in cells receiving 3 μM FTY-720 ([1]; 0.64 nM Isis No. 353382, 3 μM FTY-720 added 2 hours before, 24 hours): 77.8 % control
- Average SRB-1 mRNA level in cells receiving no pre-treatment ([1]; 0.64 nM Isis No. 353382, 24 hours, no pre-treatment): 95.9 % control
- Average SRB-1 mRNA level in cells receiving no pre-treatment ([1]; 0.64 nM Isis No. 353382, no pre-treatment, 24 hours): 87.8 % control
- Average SRB-1 mRNA level in cells receiving 200 nM myriocin ([1]; 3.2 nM Isis No. 353382, 200 nM myriocin added 2 hours before, 24 hours): 46.8 % control
- Average SRB-1 mRNA level in cells receiving 3 μM FTY-720 ([1]; 3.2 nM Isis No. 353382, 3 μM FTY-720 added 2 hours before, 24 hours): 65.9 % control
- Average SRB-1 mRNA level in cells receiving no pre-treatment ([1]; 3.2 nM Isis No. 353382, 24 hours, no pre-treatment): 72.2 % control
- Average SRB-1 mRNA level in cells receiving no pre-treatment ([1]; 3.2 nM Isis No. 353382, no pre-treatment, 24 hours): 80.9 % control
- Average SRB-1 mRNA level in cells receiving 200 nM myriocin ([1]; 16 nM Isis No. 353382, 200 nM myriocin added 2 hours before, 24 hours): 36.1 % control
- Average SRB-1 mRNA level in cells receiving 3 μM FTY-720 ([1]; 16 nM Isis No. 353382, 3 μM FTY-720 added 2 hours before, 24 hours): 46.5 % control
- Average SRB-1 mRNA level in cells receiving no pre-treatment ([1]; 16 nM Isis No. 353382, 24 hours, no pre-treatment): 46.3 % control
- Average SRB-1 mRNA level in cells receiving no pre-treatment ([1]; 16 nM Isis No. 353382, no pre-treatment, 24 hours): 74.3 % control
- Average SRB-1 mRNA level in cells receiving 200 nM myriocin ([1]; 80 nM Isis No. 353382, 200 nM myriocin added 2 hours before, 24 hours): 27.2 % control
- Average SRB-1 mRNA level in cells receiving 3 μM FTY-720 ([1]; 80 nM Isis No. 353382, 3 μM FTY-720 added 2 hours before, 24 hours): 27.1 % control
- Average SRB-1 mRNA level in cells receiving no pre-treatment ([1]; 80 nM Isis No. 353382, 24 hours, no pre-treatment): 32.3 % control
- Average SRB-1 mRNA level in cells receiving no pre-treatment ([1]; 80 nM Isis No. 353382, no pre-treatment, 24 hours): 53.5 % control
- Average SRB-1 mRNA level in cells receiving 200 nM myriocin ([1]; 400 nM Isis No. 353382, 200 nM myriocin added 2 hours before, 24 hours): 23.5 % control
- Average SRB-1 mRNA level in cells receiving 3 μM FTY-720 ([1]; 400 nM Isis No. 353382, 3 μM FTY-720 added 2 hours before, 24 hours): 23.6 % control
- Average SRB-1 mRNA level in cells receiving no pre-treatment ([1]; 400 nM Isis No. 353382, 24 hours, no pre-treatment): 26.8 % control
- Average SRB-1 mRNA level in cells receiving no pre-treatment ([1]; 400 nM Isis No. 353382, no pre-treatment, 24 hours): 52.2 % control
- Average SRB-1 mRNA level in cells receiving 200 nM myriocin ([1]; 2,000 nM Isis No. 353382, 200 nM myriocin added 2 hours before, 24 hours): 19.6 % control
- Average SRB-1 mRNA level in cells receiving 3 μM FTY-720 ([1]; 2,000 nM Isis No. 353382, 3 μM FTY-720 added 2 hours before, 24 hours): 16.8 % control
- Average SRB-1 mRNA level in cells receiving no pre-treatment ([1]; 2,000 nM Isis No. 353382, 24 hours, no pre-treatment): 22.4 % control
- Average SRB-1 mRNA level in cells receiving no pre-treatment ([1]; 2,000 nM Isis No. 353382, no pre-treatment, 24 hours): 44.9 % control
- Average SRB-1 mRNA level in cells receiving 200 nM myriocin ([1]; 10,000 nM Isis No. 353382, 200 nM myriocin added 2 hours before, 24 hours): 15.6 % control
- Average SRB-1 mRNA level in cells receiving 3 μM FTY-720 ([1]; 10,000 nM Isis No. 353382, 3 μM FTY-720 added 2 hours before, 24 hours): 12.1 % control
- Average SRB-1 mRNA level in cells receiving no pre-treatment ([1]; 10,000 nM Isis No. 353382, 24 hours, no pre-treatment): 16.6 % control
- Average SRB-1 mRNA level in cells receiving no pre-treatment ([1]; 10,000 nM Isis No. 353382, no pre-treatment, 24 hours): 36.0 % control

Compound: Isis No. 556062: 3-10-3 (S)-cEt gapmer 5′-GGCTTAATGCAGCATT-3′ (SEQ ID NO: 4), all phosphorothioate linkages, 5-methylcytosines; targets mouse Malat-1 (antisense kG*kG*k[5mC]*dT*dT*dA*dA*dT*dG*d[5mC]*dA*dG*d[5mC]*kA*kT*kT)
- Average Malat-1 RNA ([2]; Fat, 2 mg/kg Isis No. 556062 i.p., 0 mg/kg FTY-720): 89 % control
- Average Malat-1 RNA ([2]; Fat, 2 mg/kg Isis No. 556062 i.p., 0.3 mg/kg FTY-720 i.p. daily): 54 % control
- Average Malat-1 RNA ([2]; Fat, 2 mg/kg Isis No. 556062 i.p., 1 mg/kg FTY-720 i.p. daily): 69 % control
- Average Malat-1 RNA ([2]; Fat, 2 mg/kg Isis No. 556062 i.p., 3 mg/kg FTY-720 i.p. daily): 45 % control
- Average Malat-1 RNA ([2]; Fat, 10 mg/kg Isis No. 556062 i.p., 0 mg/kg FTY-720): 63 % control
- Average Malat-1 RNA ([2]; Fat, 10 mg/kg Isis No. 556062 i.p., 0.3 mg/kg FTY-720 i.p. daily): 39 % control
- Average Malat-1 RNA ([2]; Fat, 10 mg/kg Isis No. 556062 i.p., 1 mg/kg FTY-720 i.p. daily): 32 % control
- Average Malat-1 RNA ([2]; Fat, 10 mg/kg Isis No. 556062 i.p., 3 mg/kg FTY-720 i.p. daily): 39 % control
- Average Malat-1 RNA ([2]; Liver, 2 mg/kg Isis No. 556062 i.p., 0 mg/kg FTY-720): 36 % control
- Average Malat-1 RNA ([2]; Liver, 2 mg/kg Isis No. 556062 i.p., 0.3 mg/kg FTY-720 i.p. daily): 30 % control
- Average Malat-1 RNA ([2]; Liver, 2 mg/kg Isis No. 556062 i.p., 1 mg/kg FTY-720 i.p. daily): 23 % control
- Average Malat-1 RNA ([2]; Liver, 2 mg/kg Isis No. 556062 i.p., 3 mg/kg FTY-720 i.p. daily): 24 % control
- Average Malat-1 RNA ([2]; Liver, 10 mg/kg Isis No. 556062 i.p., 0 mg/kg FTY-720): 12 % control
- Average Malat-1 RNA ([2]; Liver, 10 mg/kg Isis No. 556062 i.p., 0.3 mg/kg FTY-720 i.p. daily): 9 % control
- Average Malat-1 RNA ([2]; Liver, 10 mg/kg Isis No. 556062 i.p., 1 mg/kg FTY-720 i.p. daily): 7 % control
- Average Malat-1 RNA ([2]; Liver, 10 mg/kg Isis No. 556062 i.p., 3 mg/kg FTY-720 i.p. daily): 10 % control

Compound: CCCCCCCCc1ccc(CCC(N)(CO)CO)cc1 [FTY-720, 2-amino-2-[2-(4-octylphenyl)ethyl]propane-1,3-diol, reference compound]
- Effect of pre-treatment on the effect of Isis No. 353382 in vitro ([1]; 3 μM FTY-720 2 hours before Isis No. 353382): potentiated the effect of Isis No. 353382
- Effect of pre-treatment on the effect of Isis No. 556062 in vivo ([2]; liver and fat, FTY-720 0.3, 1 or 3 mg/kg i.p. once a day for 11 days, Isis No. 556062 i.p. on day 10): potentiated the effect of Isis No. 556062
- Effect of pre-treatment on the effect of Isis No. 556062 in vivo [3]: potentiated the effect of Isis No. 556062
